For one experiment, the target named is T1, mouse Y2 receptor (Mus musculus, UniProt P97295).
T1 construct: membranes from rat or mouse hippocampus were prepared; from tissue; host or cells: mouse hippocampus membranes
T1 sequence (P97295 1-381): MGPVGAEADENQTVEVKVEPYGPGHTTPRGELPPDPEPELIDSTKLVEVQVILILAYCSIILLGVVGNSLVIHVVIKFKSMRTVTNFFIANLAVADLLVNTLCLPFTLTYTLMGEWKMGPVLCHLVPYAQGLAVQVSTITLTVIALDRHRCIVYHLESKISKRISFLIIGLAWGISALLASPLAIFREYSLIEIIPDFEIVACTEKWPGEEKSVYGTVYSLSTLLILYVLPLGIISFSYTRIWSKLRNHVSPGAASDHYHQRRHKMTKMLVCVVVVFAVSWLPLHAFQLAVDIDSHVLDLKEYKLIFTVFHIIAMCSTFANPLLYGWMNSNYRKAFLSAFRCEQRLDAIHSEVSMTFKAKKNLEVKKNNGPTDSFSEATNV
The experiment can be described thus: Neuropeptide Y2 radioligand binding assay, [125I]PYY, mouse hippocampus membranes. Conditions: read-out: mY2 pKi (converted). The procedure: Radioligand binding assays for the human and rat/mouse Y2 receptor were performed as described in Bonaventure, P., D. Nepomuceno, C. Mazur, B. Lord, D. A. Rudolph, J. A. Jablonowski, N. I. Carruthers and T. W. Lovenberg, J Pharmacol Exp Ther. 2004, 308, 1130.
KAN-Ts endogenously expressing Y2 receptors were used, for the rat and mouse Y2 receptor, membranes from rat or mouse hippocampus were prepared. Membranes were incubated with [^125I]PYY (80 pM) in the presence or absence of test compound for 1 h at rt. The reaction was stopped by filtration through GF/C filter plates pre-soaked in 0.3% polyethylenimine and subsequently washed with Tris-HCl, 50 mM, 5 mM EDTA buffer. Plates were dried for 1 h in a 55° C. oven, scintillation fluid was added and the radioactivity was counted in a Packard TopCount. Specific binding to the NPY receptor subtypes was determined by radioactivity that was bound in the presence of 1 μM NPY.
Apparent Ki values were calculated as K=IC50/(1+C/KD), where C is concentration of the radioligand and pKi=−log Ki. Data presented below are expressed as mean±S.E.M.

The target of the next experiment is T2, hY2 (Homo sapiens, UniProt P49146).
T2 construct: KAN-Ts endogenously expressing Y2 receptors were used; endogenous in cells; host or cells: KAN-Ts cells stably expressing chimeric G proteins
T2 sequence (P49146 1-381): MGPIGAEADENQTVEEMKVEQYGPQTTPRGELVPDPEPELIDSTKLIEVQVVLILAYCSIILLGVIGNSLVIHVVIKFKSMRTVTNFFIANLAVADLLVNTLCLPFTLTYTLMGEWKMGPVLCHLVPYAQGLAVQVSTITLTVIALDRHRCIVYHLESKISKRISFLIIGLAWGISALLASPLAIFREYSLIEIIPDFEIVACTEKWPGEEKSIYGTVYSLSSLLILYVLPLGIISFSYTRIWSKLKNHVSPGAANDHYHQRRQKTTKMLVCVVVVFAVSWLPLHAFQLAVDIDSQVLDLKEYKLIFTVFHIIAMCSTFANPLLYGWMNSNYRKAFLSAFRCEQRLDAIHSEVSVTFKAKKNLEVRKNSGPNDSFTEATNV
Put plainly: Ca2+ mobilization assay (FLIPR) in KAN-Ts cells. Type of experiment: cell-based. The settings on record: KANT-S cells, inhibition of PYY stimulated Ca2+ increase, read-out: hY2 pKB (converted). The procedure:
The assay was performed using the fluorimetric imaging plate reader (FLIPR) format as described in Dautzenberg, F. M., Biochemical Pharmacology 2005, 69, 1493.
KAN-Ts cells stably expressing chimeric G proteins were seeded at a density of 100,000 cells into poly-d-lysine coated 384-well blackwall, clear-bottom microtiter plates (Corning, N.Y.). One day later, the medium was removed and 50 μl loading medium DMEM high glucose, without serum, supplemented with 10 mM HEPES-acid, 0.1% BSA, 5 mM probenecid and 2 μM Fluo-3AM was added. Cells were loaded for 1 h at 37° C., washed twice with 50 μl assay buffer (5 mM HEPES-acid, 140 mM NaCl, 1 mM MgCl2, 5 mM KCl, 10 mM glucose) and then 30 μl assay buffer was added. Cells were further pre-incubated at room temperature before adding agonists or agonists plus antagonists in 20 μl assay buffer and then measured on a T-channel fluorometric imaging plate reader (FLIPR, Molecular Devices, Sunnyvale, Calif.).
Antagonistic potency values were converted to apparent pKB values using a modified Cheng-Prusoff correction. Apparent pKB=−log IC50/1+[conc agonist/EC50]. Data below are expressed as mean±S.E.M.
The in vitro antagonistic properties of the compound of formula (A) were confirmed using Ca^2+ measurement.

Experiment [1] deals with ethanol-induced hyperactivity. The experiment can be described thus: Ethanol-induced hyperactivity (locomotor activity) in c57bl6/j mice. Type of experiment: in vivo. The settings on record: 10 mg/kg i.p. From the text:
C57bl6/j mice readily self-administer ethanol and these mice are sensitive to the stimulant effects of alcohol. NPY immunoreactivity is reduced in these mice. In addition, mice lacking NPY drink more ethanol than wild type mice; whereas, mice over-expressing NPY have reduced preference for ethanol. Experiments were designed to test the hypothesis that selective blockade of Y2 receptors by the compound of formula (A) decreases ethanol stimulant effects presumable by enhancing NPY function in the brain.
Locomotor activity was measured with a Hamilton Kinder motor monitor infrared beam apparatus equipped with a SmartFrame cage rack throughout which basic movements were recorded. Experiments assessed the effects of the compound of formula (A) on ethanol-induced hyperactivity in 8-10-week old c57bl6/j mice and were conducted using a between subject design. Vehicle (10 ml/kg, i.p.) or the compound of formula (A) (10 mg/kg, i.p.) was administered 15 min prior to the beginning of the session. Thereafter, animals received an acute injection of either vehicle (10 ml/kg, i.p.) or ethanol (1 g/kg, i.p), then they were immediately placed in the apparatus and locomotor activity was evaluated for 15 min. Data were analyzed with two-way repeated ANOVA using Graph Pad.

Take `CCN(CC)C(=O)C(c1ccccc1)N1CCN(c2ccc(NC(=O)c3ccccc3-c3cccnc3)cc2F)CC1` (racemic) [Cmpd (A), N-{4-[4-(Diethylcarbamoyl-phenyl-methyl)-piperazin-1-yl]-3-fluoro-phenyl}-2-pyridin-3-yl-benzamide]: the Ki at mouse Y2 receptor was 4.47 nM. Moreover, the Kb on hY2 was 2.69 nM. Further, in experiment [1] (15 min before ethanol 1 g/kg i.p.), the “effect on ethanol-induced hyperactivity” value is on record as “significantly reduced ethanol hyperactivity”. Also, the “effect on locomotor activity by itself” value in experiment [1] (no ethanol) is recorded as “did not change locomotor activity by itself”.

The record behind these values is patent US8338426B2, “Piperazinyl derivatives useful as modulators of the neuropeptide Y2 receptor” (Janssen Pharmaceutica NV, priority 2007, dated 2012).
